Measurements as given in US20100292231A1, “Indazole Compounds for Treating Inflammatory Disorders, Demyelinating Disorders and Cancers” (priority 2007, published 2010).
Where two headings read alike, the source gives them in different places.

Assays:
Assay in all cases: SelectScreen kinase specificity survey
Type in all cases: biochemical
[1] = biological target: T1, ABL1 E255K (Homo sapiens, UniProt P00519, E255K); conditions: estimated, abridged dose response curve, read-out: Kinase inhibitory activity EC50
T1 construct: purchased Invitrogen (SelectScreen platform)
Method: (§1) Testing of the compounds described in this invention was carried out using the SelectScreen™ platform from Invitrogen, Inc. (Carlsbad. Calif., USA) and the details of its performance are readily viewed via the web by linking to: http://www.invitrogen.com/downloads/SelectScrn_Brochure.pdf.
(§2) Briefly, the approach is based on treating each specific kinase with a unique substrate and optical reporter system in the presence of ATP at 100 micromolar. In controls, the substrate is phosphorylated and a baseline optimal response is recorded.
(§3) The compounds were then re-tested by adding graded amounts of putative inhibitor which were added in 5 separate increments to generate a dose response curve. The latter is obtained by fitting to a 4 parameter Hill equation, a sigmoid saturation equation.
(§4) The same assay system described in Example 2 can be applied in the determination of kinase specificity. It is well understood by medicinal chemists in the development of kinase inhibitors that the resulting molecules often lack specificity. Not only are homologous kinases inhibited by the same class of compounds, but also non-homologous kinases can be affected by allosteric, induced, activated vs inactivated conformation, and protein folding interactions with the putative inhibitor, which otherwise had been designed to be specific. These off target effects are difficult to predict and can only be ruled in or out by empirically surveying a large set of kinases. It is also understood that changes to scaffolds and variation in their chemical decorations may influence the extent of promiscuity in the patterns of kinase inhibition across kinase classes.
(§5) The following experiment was conducted to address this issue. The indazole compound (IV), described in Example 2 and representative of the new genus was tested along with Symadex against a panel of 230 kinases representative of all known kinases classes. Included in the survey were the Flt3, its mutant, and close relatives in the Class III receptor tyrosine kinase class, together with serine-threonine kinases and atypical kinases many of which share no homology of active site with Flt3 as shown, for example, in the respective “genecard” for each kinase and available for inspection at on the web at http://www.genecards.org/.
(§6) Table 3 lists the estimated EC50 values from an abridged dose response curve for Symadex (C-1311) and CF-123. The kinases are listed alphabetically by Group and Family.

[2] = biological target: T2, ADRBK1 (BARK1, GRK2) (Homo sapiens, UniProt P25098)
T2 construct: purchased Invitrogen (SelectScreen platform)
Method: as §1, §2, §3, §4, §5, §6

[3] = biological target: T3, AKT1 (PKB alpha) (Homo sapiens, UniProt P31749); conditions: estimated, abridged dose response curve, read-out: Kinase inhibitory activity EC50
T3 construct: purchased Invitrogen (SelectScreen platform)
Method: as §1, §2, §3, §4, §5, §6

[4] = biological target: T4, AURKB (Aurora B) (Homo sapiens, UniProt Q96GD4); conditions: estimated, abridged dose response curve, read-out: Kinase inhibitory activity EC50
T4 construct: purchased Invitrogen, Inc. (SelectScreen service)
Method: as §1, §2, §3, §4, §5, §6

[5] = biological target: T5, AURKC (Aurora C) (Homo sapiens, UniProt Q9UQB9); conditions: estimated, abridged dose response curve, read-out: Kinase inhibitory activity EC50
T5 construct: purchased Invitrogen, Inc. (SelectScreen service)
Method: as §1, §2, §3, §4, §5, §6

[6] = biological target: T6, CAMK2A (CaMKII alpha) (Homo sapiens, UniProt Q9UQM7); conditions: estimated, abridged dose response curve, read-out: Kinase inhibitory activity EC50
T6 construct: purchased Invitrogen, Inc. (SelectScreen platform)
Method: as §1, §2, §3, §4, §5, §6

[7] = biological target: T7, CAMK2B (CaMKII beta) (Homo sapiens, UniProt Q13554); conditions: estimated, abridged dose response curve, read-out: Kinase inhibitory activity EC50
T7 construct: purchased Invitrogen, Inc. (SelectScreen platform)
Method: as §1, §2, §3, §4, §5, §6

[8] = biological target: T8, CDC42 BPA (MRCKA) (Homo sapiens, UniProt Q5VT25); conditions: estimated, abridged dose response curve, read-out: Kinase inhibitory activity EC50
T8 construct: purchased Invitrogen (SelectScreen platform)
Method: as §1, §2, §3, §4, §5, §6

[9] = biological target: T9, CHEK2 (CHK2) (Homo sapiens, UniProt O96017); conditions: estimated, abridged dose response curve, read-out: Kinase inhibitory activity EC50
T9 construct: purchased Invitrogen, Inc. (SelectScreen platform)
Method: as §1, §2, §3, §4, §5, §6

[10] = biological target: T10, EPHA5 (Homo sapiens, UniProt P54756); conditions: estimated, abridged dose response curve, read-out: Kinase inhibitory activity EC50
T10 construct: purchased Invitrogen (SelectScreen service)
Method: as §1, §2, §3, §4, §5, §6

[11] = biological target: T11, FGFR4 (Homo sapiens, UniProt P22455); conditions: estimated, abridged dose response curve, read-out: Kinase inhibitory activity EC50
T11 construct: purchased Invitrogen (SelectScreen platform)
Method: as §1, §2, §3, §4, §5, §6

[12] = biological target: T12, FLT1 (VEGFR1) (Homo sapiens, UniProt P17948); conditions: estimated, abridged dose response curve, read-out: Kinase inhibitory activity EC50
T12 construct: purchased Invitrogen, Inc. (SelectScreen platform)
Method: as §1, §2, §3, §4, §5, §6

[13] = biological target: T13, FYN (Homo sapiens, UniProt P06241); conditions: estimated, abridged dose response curve, read-out: Kinase inhibitory activity EC50
T13 construct: purchased Invitrogen (SelectScreen)
Method: as §1, §2, §3, §4, §5, §6

[14] = biological target: T14, ITK (Homo sapiens, UniProt Q08881); conditions: estimated, abridged dose response curve, read-out: Kinase inhibitory activity EC50
T14 construct: purchased Invitrogen (SelectScreen)
Method: as §1, §2, §3, §4, §5, §6

[15] = biological target: T15, JAK2 JH1 JH2 (Homo sapiens, UniProt O60674); conditions: estimated, abridged dose response curve, read-out: Kinase inhibitory activity EC50
T15 construct: JAK2 JH1 JH2; purchased Invitrogen (SelectScreen platform)
Method: as §1, §2, §3, §4, §5, §6

[16] = biological target: T16, MAP3K9 (MLK1) (Homo sapiens, UniProt P80192); conditions: estimated, abridged dose response curve, read-out: Kinase inhibitory activity EC50
T16 construct: purchased Invitrogen, Inc. (SelectScreen platform)
Method: as §1, §2, §3, §4, §5, §6

[17] = biological target: T17, MAPK14 (p38 alpha) (Homo sapiens, UniProt Q16539); conditions: estimated, abridged dose response curve, read-out: Kinase inhibitory activity EC50
T17 construct: purchased Invitrogen, Inc. (SelectScreen service)
Method: as §1, §2, §3, §4, §5, §6

[18] = biological target: T18, MAPKAPK2 (Homo sapiens, UniProt P49137); conditions: estimated, abridged dose response curve, read-out: Kinase inhibitory activity EC50
T18 construct: purchased Invitrogen, Inc. (SelectScreen platform)
Method: as §1, §2, §3, §4, §5, §6

[19] = biological target: T19, NTRK1 (TRKA) (Homo sapiens, UniProt P04629)
T19 construct: purchased Invitrogen (SelectScreen)
Method: as §1, §2, §3, §4, §5, §6

[20] = biological target: T20, PRKCD (PKC delta) (Homo sapiens, UniProt Q05655); conditions: estimated, abridged dose response curve, read-out: Kinase inhibitory activity EC50
T20 construct: purchased Invitrogen, Inc. (SelectScreen platform)
Method: as §1, §2, §3, §4, §5, §6

[21] = biological target: T21, PRKCI (PKC iota) (Homo sapiens, UniProt P41743); conditions: estimated, abridged dose response curve, read-out: Kinase inhibitory activity EC50
T21 construct: purchased Invitrogen, Inc. (SelectScreen platform)
Method: as §1, §2, §3, §4, §5, §6

[22] = biological target: T22, PTK6 (Brk) (Homo sapiens, UniProt Q13882); conditions: estimated, abridged dose response curve, read-out: Kinase inhibitory activity EC50
T22 construct: purchased Invitrogen (SelectScreen)
Method: as §1, §2, §3, §4, §5, §6

[23] = biological target: T23, RET V804L (Homo sapiens, UniProt P07949, V804L); conditions: estimated, abridged dose response curve, read-out: Kinase inhibitory activity EC50
T23 construct: purchased Invitrogen (SelectScreen)
Method: as §1, §2, §3, §4, §5, §6

[24] = biological target: T24, RPS6KA5 (MSK1) (Homo sapiens, UniProt O75582); conditions: estimated, abridged dose response curve, read-out: Kinase inhibitory activity EC50
T24 construct: purchased Invitrogen, Inc. (SelectScreen platform)
Method: as §1, §2, §3, §4, §5, §6

[25] = biological target: T25, SRPK2 (Homo sapiens, UniProt P78362); conditions: estimated, abridged dose response curve, read-out: Kinase inhibitory activity EC50
T25 construct: purchased Invitrogen, Inc. (SelectScreen service)
Method: as §1, §2, §3, §4, §5, §6

[26] = biological target: T26, YES1 (YES) (Homo sapiens, UniProt P07947); conditions: estimated, abridged dose response curve, read-out: Kinase inhibitory activity EC50
T26 construct: purchased Invitrogen (SelectScreen)
Method: as §1, §2, §3, §4, §5, §6

T10 sequence (P54756 25-1037): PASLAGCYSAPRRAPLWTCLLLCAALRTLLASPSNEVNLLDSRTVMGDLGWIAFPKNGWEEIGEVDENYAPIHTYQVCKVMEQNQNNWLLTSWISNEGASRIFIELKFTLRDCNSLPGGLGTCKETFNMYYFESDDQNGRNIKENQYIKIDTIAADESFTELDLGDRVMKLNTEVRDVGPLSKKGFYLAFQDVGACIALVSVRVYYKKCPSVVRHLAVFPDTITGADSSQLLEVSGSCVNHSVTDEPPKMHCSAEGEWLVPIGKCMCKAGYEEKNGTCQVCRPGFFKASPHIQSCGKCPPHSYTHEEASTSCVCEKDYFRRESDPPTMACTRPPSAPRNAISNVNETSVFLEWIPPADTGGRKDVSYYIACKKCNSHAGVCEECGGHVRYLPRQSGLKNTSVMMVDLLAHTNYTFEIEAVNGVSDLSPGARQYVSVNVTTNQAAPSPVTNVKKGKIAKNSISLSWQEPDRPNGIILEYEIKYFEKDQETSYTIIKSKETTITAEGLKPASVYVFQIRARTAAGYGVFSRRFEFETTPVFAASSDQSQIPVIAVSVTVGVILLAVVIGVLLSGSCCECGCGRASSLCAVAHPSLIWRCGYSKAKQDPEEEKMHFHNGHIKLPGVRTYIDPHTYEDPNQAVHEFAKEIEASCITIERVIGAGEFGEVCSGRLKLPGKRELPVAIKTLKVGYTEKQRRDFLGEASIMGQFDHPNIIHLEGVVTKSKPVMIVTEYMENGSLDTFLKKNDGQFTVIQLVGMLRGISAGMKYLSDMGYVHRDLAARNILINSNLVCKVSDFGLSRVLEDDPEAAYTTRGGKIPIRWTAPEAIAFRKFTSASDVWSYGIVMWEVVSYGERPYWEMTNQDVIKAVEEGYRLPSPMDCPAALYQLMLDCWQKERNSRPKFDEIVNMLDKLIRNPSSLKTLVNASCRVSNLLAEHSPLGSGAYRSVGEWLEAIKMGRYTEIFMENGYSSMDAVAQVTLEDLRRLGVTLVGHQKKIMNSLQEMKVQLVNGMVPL
T5 sequence (Q9UQB9 whole entry): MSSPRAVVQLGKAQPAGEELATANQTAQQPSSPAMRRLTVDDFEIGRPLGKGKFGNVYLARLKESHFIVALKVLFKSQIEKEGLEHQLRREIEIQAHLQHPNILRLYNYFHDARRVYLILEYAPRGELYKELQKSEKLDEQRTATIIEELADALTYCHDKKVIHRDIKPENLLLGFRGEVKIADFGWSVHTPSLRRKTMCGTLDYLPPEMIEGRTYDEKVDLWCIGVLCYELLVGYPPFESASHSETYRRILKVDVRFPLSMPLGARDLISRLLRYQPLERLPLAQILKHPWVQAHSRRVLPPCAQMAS
T13 sequence (P06241 whole entry): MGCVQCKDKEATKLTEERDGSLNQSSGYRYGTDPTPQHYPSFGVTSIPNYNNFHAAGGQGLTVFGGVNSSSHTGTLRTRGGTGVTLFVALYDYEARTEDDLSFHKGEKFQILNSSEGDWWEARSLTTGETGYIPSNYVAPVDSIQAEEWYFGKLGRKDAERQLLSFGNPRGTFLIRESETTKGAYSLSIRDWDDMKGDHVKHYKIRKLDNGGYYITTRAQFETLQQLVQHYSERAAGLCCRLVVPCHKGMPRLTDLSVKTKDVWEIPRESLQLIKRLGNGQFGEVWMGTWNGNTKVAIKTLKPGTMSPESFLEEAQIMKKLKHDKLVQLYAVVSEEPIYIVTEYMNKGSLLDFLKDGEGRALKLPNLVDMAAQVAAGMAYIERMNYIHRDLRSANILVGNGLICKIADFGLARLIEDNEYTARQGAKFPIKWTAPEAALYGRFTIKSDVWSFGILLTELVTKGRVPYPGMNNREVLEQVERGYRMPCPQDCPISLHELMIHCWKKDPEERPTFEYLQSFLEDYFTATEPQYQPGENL
T19 sequence (P04629 33-796): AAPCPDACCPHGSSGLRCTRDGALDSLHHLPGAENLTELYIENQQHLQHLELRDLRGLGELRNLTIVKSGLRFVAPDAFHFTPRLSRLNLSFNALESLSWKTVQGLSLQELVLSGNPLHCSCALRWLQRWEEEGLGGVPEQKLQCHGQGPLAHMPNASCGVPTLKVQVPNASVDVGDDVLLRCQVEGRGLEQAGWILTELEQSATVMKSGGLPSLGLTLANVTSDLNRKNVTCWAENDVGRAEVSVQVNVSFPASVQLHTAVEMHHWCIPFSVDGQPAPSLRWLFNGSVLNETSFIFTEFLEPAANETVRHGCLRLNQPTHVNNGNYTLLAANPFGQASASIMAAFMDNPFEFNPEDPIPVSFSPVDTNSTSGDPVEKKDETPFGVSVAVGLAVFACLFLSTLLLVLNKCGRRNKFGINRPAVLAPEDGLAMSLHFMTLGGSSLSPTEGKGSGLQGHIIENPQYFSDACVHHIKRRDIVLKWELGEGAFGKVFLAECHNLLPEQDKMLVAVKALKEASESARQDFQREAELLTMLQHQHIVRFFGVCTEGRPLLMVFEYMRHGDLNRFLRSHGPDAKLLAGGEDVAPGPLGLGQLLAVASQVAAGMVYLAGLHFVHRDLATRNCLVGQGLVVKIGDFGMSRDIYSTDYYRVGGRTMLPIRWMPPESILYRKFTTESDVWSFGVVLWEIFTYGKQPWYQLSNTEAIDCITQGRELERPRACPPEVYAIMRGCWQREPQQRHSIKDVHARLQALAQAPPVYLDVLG
T16 sequence (P80192 whole entry): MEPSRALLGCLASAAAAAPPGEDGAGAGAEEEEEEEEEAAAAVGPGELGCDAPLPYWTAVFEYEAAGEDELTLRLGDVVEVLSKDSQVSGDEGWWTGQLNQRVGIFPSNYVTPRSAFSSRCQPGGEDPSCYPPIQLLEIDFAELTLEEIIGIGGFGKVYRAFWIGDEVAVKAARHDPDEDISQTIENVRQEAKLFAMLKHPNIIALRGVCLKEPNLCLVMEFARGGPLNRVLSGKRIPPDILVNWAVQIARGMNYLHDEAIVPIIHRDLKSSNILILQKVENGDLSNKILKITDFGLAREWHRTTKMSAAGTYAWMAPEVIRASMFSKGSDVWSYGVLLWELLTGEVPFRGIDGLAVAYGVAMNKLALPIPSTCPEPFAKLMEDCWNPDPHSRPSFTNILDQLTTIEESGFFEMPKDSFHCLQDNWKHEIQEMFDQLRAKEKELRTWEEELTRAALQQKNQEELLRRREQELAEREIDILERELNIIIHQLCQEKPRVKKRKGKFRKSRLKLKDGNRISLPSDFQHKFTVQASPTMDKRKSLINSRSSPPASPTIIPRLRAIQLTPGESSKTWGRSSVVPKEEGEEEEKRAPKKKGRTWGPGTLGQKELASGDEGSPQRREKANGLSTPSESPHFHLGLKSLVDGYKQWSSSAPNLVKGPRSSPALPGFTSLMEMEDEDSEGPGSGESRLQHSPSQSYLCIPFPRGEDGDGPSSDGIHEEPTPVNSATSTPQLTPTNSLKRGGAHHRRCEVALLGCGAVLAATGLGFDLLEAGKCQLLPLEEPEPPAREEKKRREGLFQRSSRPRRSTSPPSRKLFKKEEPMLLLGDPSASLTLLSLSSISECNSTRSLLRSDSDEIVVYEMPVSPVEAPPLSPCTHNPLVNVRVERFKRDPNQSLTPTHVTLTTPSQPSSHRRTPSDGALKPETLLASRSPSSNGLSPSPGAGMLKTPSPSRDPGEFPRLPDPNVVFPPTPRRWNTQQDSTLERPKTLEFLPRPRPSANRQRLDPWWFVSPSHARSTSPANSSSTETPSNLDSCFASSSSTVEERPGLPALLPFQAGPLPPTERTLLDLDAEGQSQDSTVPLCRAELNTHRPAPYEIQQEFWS
T25 sequence (P78362 whole entry): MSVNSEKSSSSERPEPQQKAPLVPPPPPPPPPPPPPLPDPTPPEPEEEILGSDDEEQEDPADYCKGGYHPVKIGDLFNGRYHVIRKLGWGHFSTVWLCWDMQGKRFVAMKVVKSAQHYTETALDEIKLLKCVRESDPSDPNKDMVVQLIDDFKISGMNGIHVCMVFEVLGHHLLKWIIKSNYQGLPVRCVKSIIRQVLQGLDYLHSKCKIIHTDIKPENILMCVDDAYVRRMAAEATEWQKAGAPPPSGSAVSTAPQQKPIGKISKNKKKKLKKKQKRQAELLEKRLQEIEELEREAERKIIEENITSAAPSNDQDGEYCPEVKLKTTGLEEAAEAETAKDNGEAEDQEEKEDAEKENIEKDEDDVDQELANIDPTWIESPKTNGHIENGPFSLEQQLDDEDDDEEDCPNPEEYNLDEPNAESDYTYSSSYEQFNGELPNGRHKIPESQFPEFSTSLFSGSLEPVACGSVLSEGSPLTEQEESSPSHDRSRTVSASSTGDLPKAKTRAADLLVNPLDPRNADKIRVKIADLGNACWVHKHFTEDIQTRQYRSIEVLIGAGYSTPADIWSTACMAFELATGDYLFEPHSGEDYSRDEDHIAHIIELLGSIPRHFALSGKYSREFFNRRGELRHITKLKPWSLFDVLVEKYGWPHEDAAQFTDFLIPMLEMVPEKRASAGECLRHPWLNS
T9 sequence (O96017 whole entry): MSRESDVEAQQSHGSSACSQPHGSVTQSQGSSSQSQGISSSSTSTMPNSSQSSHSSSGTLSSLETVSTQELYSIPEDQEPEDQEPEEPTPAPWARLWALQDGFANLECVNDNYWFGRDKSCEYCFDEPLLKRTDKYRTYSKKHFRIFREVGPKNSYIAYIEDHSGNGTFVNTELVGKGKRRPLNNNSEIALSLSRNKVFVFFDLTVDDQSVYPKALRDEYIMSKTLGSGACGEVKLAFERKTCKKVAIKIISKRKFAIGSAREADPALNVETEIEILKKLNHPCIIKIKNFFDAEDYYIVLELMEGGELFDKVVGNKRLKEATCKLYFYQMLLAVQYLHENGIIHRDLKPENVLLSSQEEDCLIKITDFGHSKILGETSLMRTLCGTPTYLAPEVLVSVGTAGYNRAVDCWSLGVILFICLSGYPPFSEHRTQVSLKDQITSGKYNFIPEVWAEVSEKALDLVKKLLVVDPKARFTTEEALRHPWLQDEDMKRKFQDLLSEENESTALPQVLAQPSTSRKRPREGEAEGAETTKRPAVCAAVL

| SMILES | EC50 [1] [µM] | EC50 [3] [µM] | EC50 [4] [µM] | EC50 [5] [µM] | EC50 [6] [µM] | EC50 [7] [µM] | EC50 [8] [µM] | EC50 [9] [µM] | EC50 [10] [µM] | EC50 [11] [µM] | EC50 [12] [µM] | EC50 [13] [µM] | EC50 [14] [µM] | EC50 [15] [µM] | EC50 [16] [µM] | EC50 [17] [µM] | EC50 [18] [µM] | EC50 [20] [µM] | EC50 [21] [µM] | EC50 [22] [µM] | also measured |
| --- | --- | --- | --- | --- | --- | --- | --- | --- | --- | --- | --- | --- | --- | --- | --- | --- | --- | --- | --- | --- | --- |
| CN(C)CCCNc1ccc2ncn3c4ccc5[nH]ncc5c4c(=O)c1c23 [Compound (IV)] | 3.72 | > 5 | > 5 | > 5 | 0.789 | > 5 | > 5 | > 5 | > 5 | > 5 | > 5 | 0.754 | 0.637 | > 5 | > 5 | 3.79 | > 5 | > 5 | > 5 | > 5 | EC50 ([2]; ADRBK1 (BARK1, GRK2), estimated, abridged dose response curve, read-out: Kinase inhibitory activity EC50): > 5 µM; EC50 ([19]; NTRK1 (TRKA), estimated, abridged dose response curve, read-out: Kinase inhibitory activity EC50): 0.438 µM; EC50 [23]: 0.864 µM; EC50 [24]: > 5 µM; EC50 [25]: > 5 µM; EC50 [26]: 1.57 µM |
| CCN(CC)CCNc1ccc2ncn3c4ccc(O)cc4c(=O)c1c23 [Symadex, 5-(2-(diethylamino)ethylamino)-8-hydroxy-6H-imidazo[4,5,1-de]acridin-6-one, reference compound] | > 5 | > 5 | > 5 | > 5 | > 5 | > 5 | > 5 | > 5 | > 5 | > 5 | > 5 | > 5 | > 5 | > 5 | > 5 | 2.97 | > 5 | > 5 | > 5 | > 5 | EC50 [2]: > 5 µM; EC50 [19]: 1.43 µM; EC50 [23]: 0.735 µM; EC50 [24]: > 5 µM; EC50 [25]: > 5 µM; EC50 [26]: > 5 µM |
